Assay results as given in patent publication US6737383B1, “Herbicidal oxadiazolidines” (priority 1999, dated 2004).

What was measured:
cocklebur = assay: Test B pre/postemergence cocklebur; type: in vivo, Xanthium strumarium
Method in brief: (§1)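 Test chemicals in a non-phytotoxic solvent mixture with surfactant were sprayed preemergence onto planted seeds and postemergence onto plants 2 to 18 cm tall (1- to 4-leaf stage). After twelve to sixteen days in a greenhouse, injury was visually rated against untreated controls from 0 (no effect) to 10 (complete control).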

crabgrass = assay: Test B pre/postemergence crabgrass; type: in vivo, Digitaria sanguinalis
Method in brief: as §1

soybean = assay: Test B pre/postemergence soybean; type: in vivo, Glycine max
Method in brief: as §1

rice = assay: Test B flood test rice; type: in vivo, Oryza sativa
Method in brief: (§2)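 Flood test on plants grown to the 2-leaf stage; treated plants kept in greenhouse twelve to sixteen days, then visually rated against controls on a 0 (no effect) to 10 (complete control) scale.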

smallflower flatsedge = assay: Test B flood test smallflower flatsedge; type: in vivo, Cyperus difformis
Method in brief: as §2

pigweed = assay: Test B pre/postemergence pigweed; type: in vivo, Amaranthus retroflexus
Method in brief: as §1

wild oat = assay: Test B pre/postemergence wild oat; type: in vivo, Avena fatua
Method in brief: as §1

blackgrass = assay: Test B pre/postemergence blackgrass; type: in vivo, Alopecurus myosuroides
Method in brief: as §1

giant foxtail = assay: Test B pre/postemergence giant foxtail; type: in vivo, Setaria faberii
Method in brief: as §1

morningglory = assay: Test B pre/postemergence morningglory; type: in vivo, Ipomoea hederacea
Method in brief: as §1

corn = assay: Test B pre/postemergence corn; type: in vivo, Zea mays
Method in brief: as §1

purple nutsedge = assay: Test B pre/postemergence purple nutsedge; type: in vivo, Cyperus rotundus
Method in brief: as §1

surinam grass = assay: Test B pre/postemergence surinam grass; type: in vivo, Brachiaria decumbens
Method in brief: as §1

bedstraw = assay: Test B pre/postemergence bedstraw; type: in vivo, Galium aparine
Method in brief: as §1

sugar beet = assay: Test B pre/postemergence sugar beet; type: in vivo, Beta vulgaris
Method in brief: as §1

duck salad = assay: Test B flood test duck salad; type: in vivo, Heteranthera limosa
Method in brief: as §2

[1] = Preemergence, Rate 62 g/ha, scale of 0 to 10 where 0 is no effect and 10 is complete control
[2] = Preemergence, Rate 250 g/ha, scale of 0 to 10 where 0 is no effect and 10 is complete control
[3] = Preemergence, Rate 500 g/ha, scale of 0 to 10 where 0 is no effect and 10 is complete control
[4] = Rate 62 g/ha, Postemergence, scale 0 to 10 (0 no effect, 10 complete control)
[5] = Rate 125 g/ha, Postemergence, scale of 0 to 10 where 0 is no effect and 10 is complete control
[6] = Rate 250 g/ha, Postemergence, scale of 0 to 10 where 0 is no effect and 10 is complete control
[7] = Rate 500 g/ha, Postemergence, scale 0 to 10, 0 no effect, 10 complete control
[8] = Rate 62 g/ha, headed Pre-emergence (flood test species), scale 0 to 10 (0 no effect, 10 complete control)
[9] = Rate 125 g/ha, Pre-emergence, flood test species, scale 0 to 10 where 0 is no effect and 10 is complete control
[10] = Rate 250 g/ha, Pre-emergence, flood-test species, scale 0 to 10, 0 is no effect, 10 is complete control
[11] = Rate 500 g/ha, Pre-emergence, flood test species, scale 0 to 10 (0 no effect, 10 complete control)

SMILES: CC(C)N(C(=O)n1oc(=O)n(Cc2nnsc2Cl)c1=O)c1ccccc1 [Compound 321]
- Cocklebur plant response rating (cocklebur; [1]): 0
- Cocklebur plant response rating (0 to 10 scale) (cocklebur; Preemergence, Rate 125 g/ha): 0
- Cocklebur plant response rating (cocklebur; [2]): 0
- Cocklebur plant response rating (cocklebur; [3]): 0
- Cocklebur plant response rating (cocklebur; [4]): 0
- Cocklebur plant response rating (cocklebur; [5]): 0
- Plant response rating, Cocklebur (cocklebur; [6]): 0
- Cocklebur plant response rating (cocklebur; [7]): 0
- Crabgrass plant response rating (crabgrass; [1]): 0
- Crabgrass plant response rating (0 to 10 scale) (crabgrass; Preemergence, Rate 125 g/ha): 2
- Crabgrass plant response rating (crabgrass; [2]): 3
- Crabgrass plant response rating (crabgrass; [3]): 4
- Crabgrass plant response rating (crabgrass; [4]): 0
- Crabgrass plant response rating (crabgrass; [5]): 0
- Plant response rating, Crabgrass (crabgrass; [6]): 2
- Soybean plant response rating (soybean; [1]): 0
- Soybean plant response rating (0 to 10 scale) (soybean; Preemergence, Rate 125 g/ha): 0
- Soybean plant response rating (soybean; [2]): 0
- Soybean plant response rating (soybean; [3]): 0
- Soybean plant response rating (soybean; [4]): 2
- Plant response rating, Soybean (soybean; [6]): 3
- Rice plant response rating (rice; [8]): 0
- Rice plant response rating (rice; [9]): 0
- Rice plant response rating (rice; [10]): 0
- Rice plant response rating (rice; [11]): 0
- S. Flatsedge plant response rating (smallflower flatsedge; [8]): 0
- S. Flatsedge plant response rating (smallflower flatsedge; [9]): 0
- S. Flatsedge plant response rating (smallflower flatsedge; [10]): 0
- S. Flatsedge plant response rating (smallflower flatsedge; [11]): 0
- Redroot pigweed plant response rating (pigweed; [1]): 0
- Redroot pigweed plant response rating (0 to 10 scale) (pigweed; Preemergence, Rate 125 g/ha): 0
- Redroot pigweed plant response rating (pigweed; [2]): 0
- Redroot pigweed plant response rating (pigweed; [3]): 0
- Redroot pigweed plant response rating (pigweed; [4]): 2
- Redroot pigweed plant response rating (pigweed; [5]): 3
- Plant response rating, Redroot pigweed (pigweed; [6]): 4
- Wild oats plant response rating (wild oat; [1]): 0
- Wild oats plant response rating (0 to 10 scale) (wild oat; Preemergence, Rate 125 g/ha): 0
- Wild oats plant response rating (wild oat; [2]): 2
- Wild oats plant response rating (wild oat; [3]): 5
- Wild oats plant response rating (wild oat; [4]): 0
- Wild oats plant response rating (wild oat; [5]): 0
- Plant response rating, Wild oats (wild oat; [6]): 0
- Blackgrass plant response rating (blackgrass; [1]): 3
- Blackgrass plant response rating (0 to 10 scale) (blackgrass; Preemergence, Rate 125 g/ha): 6
- Blackgrass plant response rating (blackgrass; [2]): 6
- Blackgrass plant response rating (blackgrass; [3]): 7
- Blackgrass plant response rating (blackgrass; [4]): 0
- Blackgrass plant response rating (blackgrass; [5]): 0
- Plant response rating, Blackgrass (blackgrass; [6]): 0
- Blackgrass plant response rating (blackgrass; [7]): 4
- Giant foxtail plant response rating (giant foxtail; [1]): 4
- Giant foxtail plant response rating (0 to 10 scale) (giant foxtail; Preemergence, Rate 125 g/ha): 8
- Giant foxtail plant response rating (giant foxtail; [2]): 9
- Giant foxtail plant response rating (giant foxtail; [3]): 10
- Giant foxtail plant response rating (giant foxtail; [4]): 0
- Giant foxtail plant response rating (giant foxtail; [5]): 0
- Plant response rating, Giant foxtail (giant foxtail; [6]): 1
- Morningglory plant response rating (morningglory; [1]): 0
- Morningglory plant response rating (0 to 10 scale) (morningglory; Preemergence, Rate 125 g/ha): 0
- Morningglory plant response rating (morningglory; [2]): 0
- Morningglory plant response rating (morningglory; [3]): 0
- Morningglory plant response rating (morningglory; [4]): 2
- Morningglory plant response rating (morningglory; [5]): 7
- Plant response rating, Morningglory (morningglory; [6]): 8
- Corn plant response rating (corn; [1]): 0
- Corn plant response rating (0 to 10 scale) (corn; Preemergence, Rate 125 g/ha): 0
- Corn plant response rating (corn; [2]): 0
- Corn plant response rating (corn; [3]): 0
- Corn plant response rating (corn; [4]): 0
- Corn plant response rating (corn; [5]): 0
- Plant response rating, Corn (corn; [6]): 0
- Corn plant response rating (corn; [7]): 0
- Nutsedge plant response rating (purple nutsedge; [1]): 0
- Nutsedge plant response rating (0 to 10 scale) (purple nutsedge; Preemergence, Rate 125 g/ha): 0
- Nutsedge plant response rating (purple nutsedge; [3]): 0
- Nutsedge plant response rating (purple nutsedge; [4]): 0
- Nutsedge plant response rating (purple nutsedge; [5]): 0
- Plant response rating, Nutsedge (purple nutsedge; [6]): 0
- B. signalgrass plant response rating (surinam grass; [1]): 0
- B. signalgrass plant response rating (0 to 10 scale, 0 is no effect, 10 is complete control) (surinam grass; Preemergence, Rate 125 g/ha): 0
- B. signalgrass plant response rating (surinam grass; [2]): 3
- B. signalgrass plant response rating (surinam grass; [3]): 5
- B. signalgrass plant response rating (surinam grass; [4]): 0
- B. signalgrass plant response rating (surinam grass; [5]): 0
- Plant response rating, B. signalgrass (surinam grass; [6]): 0
- B. signalgrass plant response rating (surinam grass; [7]): 0
- Bedstraw plant response rating (bedstraw; [1]): 0
- Bedstraw plant response rating (bedstraw; [3]): 3
- Bedstraw plant response rating (bedstraw; [4]): 0
- Bedstraw plant response rating (bedstraw; [5]): 4
- Plant response rating, Bedstraw (bedstraw; [6]): 8
- Sugarbeets plant response rating (sugar beet; [1]): 0
- Sugarbeets plant response rating (0 to 10 scale) (sugar beet; Preemergence, Rate 125 g/ha): 0
- Sugarbeets plant response rating (sugar beet; [2]): 0
- Sugarbeets plant response rating (sugar beet; [3]): 0
- Sugarbeets plant response rating (sugar beet; [4]): 0
- Sugarbeets plant response rating (sugar beet; [5]): 0
- Plant response rating, Sugarbeets (sugar beet; [6]): 5
- Ducksalad plant response rating (duck salad; [8]): 0
- Ducksalad plant response rating (duck salad; [9]): 0
- Ducksalad plant response rating (duck salad; [10]): 0
- Ducksalad plant response rating (duck salad; [11]): 0
